Measured values published in a melting point compilation (Tetko et al.; mined from patent text by program, amines drawn as free bases though some values may be those of a salt).

melting point [°C] | SMILES
139 to 140 | CCC(Cn1cncn1)(C(N)=O)c1ccc(Cl)cc1 (centres undefined)
289 to 290 | CC1=C(C#N)S(=O)(=O)c2cc(F)cc(F)c2N1
56 to 57 | CCCOc1cc(/C=C/C(=O)OCC)n(Cc2ccccc2)n1
99 | O=C(NCc1ccccc1-c1ccccc1C(=O)NCCc1ccccn1)Nc1ccccc1
78 to 80 | CCOC(Cc1ccc(NCCCC2=CCC(NS(C)(=O)=O)(OC(C)(C)C)C=C2)cc1)C(=O)O (centres undefined)
131 to 133 | COC(=O)COc1ccc(SCc2cc(-c3ccc(Cl)cc3)on2)c2c1CCCO2
79 to 80 | CCOc1ccccc1C(=O)SSc1ccc([N+](=O)[O-])cc1C(Cl)(Cl)Cl
115 to 117 | NNC(=S)NCC1CC(c2ccc(Cl)cc2)=NO1 (centres undefined)
132 | CCOCCOc1ccc(C(=O)Nc2ccc3cc(CN4CCCC4)cnc3c2C)c(F)c1
183 to 184 | CC(C)n1c2c(c3cccc(F)c31)C(=O)NCC2
> 240 | CC(C)c1cccc(C(C)C)c1NC(=O)Nc1nnn[nH]1
242 to 243 | CC(C)NC1=NS(=O)(=O)c2c(cnn2C)N1
174 to 176 | COC(=O)c1c(C)c([N+](=O)[O-])cc2nc(OC)c(OC)nc12
59 to 62 | CCc1cccc(NC(=O)C(C)(C)C)n1
176 to 182 | CCC12CCC3C4=C(CC(OC)=CC4)C(C)CC3C1CCC2O (centres undefined)
59.6 | CC#CCOc1cc(-c2ccccc2)ncn1
192 to 201 | Cc1cc(C)c(Nc2nc(C)ccc2S(=O)(=O)c2ccc(OCc3cc(Cl)nc(Cl)c3)cc2)c(C)c1
125 | COC1(C)CC(C)(C)c2ccc(Oc3ccc([N+](=O)[O-])cc3)cc2O1 (centres undefined)
210 | C[C@H]1CN(C(c2ccccc2)(c2ccccc2)c2ccccc2)CCN1c1ccc(C(F)(F)F)c(Cl)n1
134 to 137 | NC(=O)C(Nc1ccc(I)cc1)c1ccccc1 (centres undefined)
148 to 150 | N#Cc1cnn(-c2ccc(C=O)cc2)n1
107 to 108 | Oc1ccc(C2CCCN2CCN2CCOCC2)cc1 (centres undefined)
210 to 213 | CNC(=O)c1ccc(N2CCN(Cc3cc4c(c(OC(F)F)c3)OC(C)C(=O)N4)CC2)cc1 (centres undefined)

The next lines start with the compound.

SMILES | melting point [°C]
COC(=O)c1cc(Cn2cncc2C)cc(C(C)(C)C#N)c1 | 101 to 104
O=c1[nH]c2ccccc2n1Cc1ccccc1 | 194
CCOc1ccccc1O[C@@H]1CN(CC)C[C@H]1O (relative stereo) | 73 to 75
O=[N+]([O-])c1ccc(N2Cc3ccccc3P2(=O)c2ccccc2)cc1 (centres undefined) | 255 to 257
C#CCNC(=NCCSCc1ccccn1)NC#N | 124 to 130
CC(=O)Nc1ccc(Sc2ccc(Br)cc2)cc1 | 153 to 155
COCCc1nc2c(N)nc3cc(-c4cccnc4)ccc3c2n1CC(C)(C)O | 158 to 160
O=C(O)CCCc1ccc(-c2ccccc2F)cc1 | 65 to 66
O=c1[nH]cnc2oc(-c3ccccc3)cc12 | 320 to 322
O=C1NCCCCC1NC(c1ccccc1)(c1ccccc1)c1ccccc1 (centres undefined) | 189
O=C(O)c1cccc2c(=O)cc(-c3ccc(OCc4ccccc4)cc3)oc12 | 145 to 147
C[C@H](O)Cn1c(=O)c(Oc2ccc(F)cc2F)cc2cnc(N[C@@H](C)CO)nc21 | 182 to 184
COC(=O)c1sc(-c2ccccc2)c(N)c1N | 148 to 150
COc1ccc(-c2nnc3c4ccccc4c(Nc4ccc(C#N)cc4)nn23)cc1 | 314
COC(=O)C(=C/c1cc(OC)c(OC)c(OC)c1)/C(=C\c1ccccc1)C(N)=O | 144 to 146
CC(=O)OCc1ccc(N(c2ccccc2)c2ccc(C=CC=O)cc2)cc1 | 112 to 115
CCOCc1nc2c(N)nc3c(c2n1CC1(O)CCCC1)CCCC3 | 171 to 173
COc1cc2c(ccn2S(C)(=O)=O)cc1Br | 126 to 129
Cn1cc(Cc2ccccc2)c(=O)c(-c2cccc(C(F)(F)F)c2)c1 | 98 to 100
FC(F)(F)c1c[nH]cc1-c1cccc(Cl)c1Cl | 63 to 65
NNC1=Nc2sc(Cl)cc2C(c2ccccc2)=NC1 | 204 to 207
O=C(NC(Cc1ccccc1)C(=O)O)c1cc2cc(F)ccc2[nH]1 (centres undefined) | 125 to 127
O=C(Nc1ccc(C(=O)Nc2ccc(Br)cn2)cn1)c1ccc(Br)nc1 | 245 to 247
COc1cnccc1-c1csc(Cc2ccccc2)n1 | 76 to 77
COc1c2c(cc3ccccc13)CCC(C(=O)O)C2 (centres undefined) | 192
COc1cc2ncc(C#N)c(Nc3ccc(SC)cc3)c2cc1OC | 235 to 237

SMILES | melting point [°C]
COCc1ccc2sc(C(=O)OC)c(C)c2c1 | 88 to 89
CCOC(=O)COc1cc2c(c(Cl)c1Cl)C(=O)C(c1ccc(F)cc1)C2 (centres undefined) | 143 to 144
CCOC(=O)c1cc(SC#N)c(-c2ccc(Cl)cc2)[nH]1 | 138 to 141
O=C(O)[C@H]1C[C@H](NC(=S)Nc2ccccc2)c2c(Cl)cc(Cl)cc2N1 (relative stereo) | 186 to 187
CCC(=O)c1ccc(O)c(C(C)C)c1 | 105
COC(=O)C=Cc1cc(-c2nn(C)c(C(F)(F)F)c2Cl)c(F)cc1Cl | 117
COc1cccc(OC)c1/C=C/S(=O)(=O)CS(=O)(=O)/C=C/c1c(OC)cccc1OC | 118 to 120
O[C@H]1COC(c2ccc(Cl)cc2)=N[C@@H]1c1ccccc1 (racemic) | 142
Cc1ccc(C(=O)Nc2ccc(C)c(-c3nc(OC(C)C)nc4c3CNC(=O)N4c3c(F)cccc3F)c2)cc1F | 254 to 255
O[C@@H]1CCC(c2ccccc2)(c2ccccc2)[C@@H]2CN(Cc3ccccc3)C[C@H]12 | 154
Fc1ccc(Sc2c[nH]c3ncccc23)cc1 | 183 to 184
COc1ccc(CN(C(=O)C2CCCc3c(O)cccc32)c2ccc(C(C)C)cc2)c(OC)n1 (centres undefined) | 190
NC(=NCC(F)(F)F)Nc1ccnc(SCCCC2=NCCN2)n1 | 184 to 186
CCn1ncc2c1ncc1c(OCCC(C)C)nc3cc(C)nn3c12 | 60 to 62
CCOC(=O)Cc1ccc(NC(=O)C(CO)NS(=O)(=O)c2ccc(F)cc2)cc1 (racemic) | 148 to 150
O=c1c2c(CC3CCOCC3)n[nH]c2c2cccnc2n1-c1ccccc1 | 228 to 234
COc1cc2c(Nc3ccc(Sc4nccn4C)c(Cl)c3)c(C#N)cnc2cc1/C=C/CCN(C)C | 215 to 225
COC(=O)c1[nH]c(C)c(C)c1OCCCl | 122 to 123
CC(C)n1nc(-c2c(-c3ccccc3)nn3ccc(C(=O)NC4CC4)cc23)ccc1=O | 184 to 185
NC1CCN(c2ncc3ncnc(Nc4ccc(F)c(Cl)c4)c3n2)C1 (centres undefined) | 174 to 176
Cc1sc(Nc2cc(F)ccn2)nc1-c1cn[nH]c1 | 283
CCOC(=O)COC(=O)c1c(I)c(NC(C)=O)c(I)c(NC(C)=O)c1I | 270
ClCc1nn(-c2ccccc2)c2c1CCCC2 | 100
O=C(Nc1cccc(S(=O)(=O)NCCO)c1)c1cnn2c(C(F)F)cc(-c3ccc(C(F)(F)F)cc3)nc12 | 231
CCCC1=C(C#N)C(c2cccc(C#N)c2Cl)c2c[nH]nc2N1 (centres undefined) | > 250
